Measured values from patent publication US20230266302A1, “SYNTHESIS AND USE OF N-BENZYL SULFONAMIDES” (THE UNIVERSITY OF TULSA, priority 2020, published 2023).

How the values were obtained:
Assay in all cases: ATP level assay (CellTiter-Glo), percent of control
Type in all cases: cell-based
HeLa (cervical cancer) = conditions: two hour incubation; for activity at 100 µM: Homo sapiens, HeLa, 2 h, compound alone, control DMSO, read-out: POC (percent of control) HeLa
HDF (normal cells) = conditions: two hour incubation; for activity at 100 µM: 2 h, compound alone, control DMSO, read-out: POC (percent of control) HDF
[1] = test system: BxPC3 (pancreatic cancer); conditions: two hour incubation; for activity at 100 µM: Homo sapiens, BXPC-3, 2 h, compound alone, control DMSO, read-out: POC (percent of control) BxPC3
MDA-MB (breast cancer) = conditions: two hour incubation; for activity at 100 µM: 2 h, compound alone, control DMSO, read-out: POC (percent of control) MDA-MB
NCI-H196 (lung cancer) = conditions: two hour incubation; for activity at 100 µM: NCI-H196, 2 h, compound alone, control DMSO, read-out: POC (percent of control) NCI-H196
[2] = test system: MCF10A (non-cancerous breast); conditions: two hour incubation; for activity at 100 µM: Homo sapiens, MCF-10A, 2 h, compound alone, control DMSO, read-out: POC (percent of control) MCF10A
T47D (breast cancer) = conditions: two hour incubation; for activity at 100 µM: Homo sapiens, T47D, 2 h, compound alone, control DMSO, read-out: POC (percent of control) T47D
PC3 (prostate cancer) = conditions: two hour incubation; for activity at 100 µM: 2 h, compound alone, control DMSO, read-out: POC (percent of control) PC3
SkBr3 (breast cancer) = conditions: two hour incubation; for activity at 100 µM: Homo sapiens, SK-BR-3, 2 h, compound alone, control DMSO, read-out: POC (percent of control) SkBr3
MCF7 (breast cancer) = conditions: two hour incubation; for activity at 100 µM: Homo sapiens, MCF7, 2 h, compound alone, control DMSO, read-out: POC (percent of control) MCF7
H293 (kidney cancer) = conditions: two hour incubation; for activity at 100 µM: 2 h, compound alone, control DMSO, read-out: POC (percent of control) H293
[3] = compound 100 uM + 2DG (about 10-20 mM)
[4] = compound 100 uM + rotenone (approximately 1.25 μM)

Row | SMILES | activity at 100 µM (HeLa (cervical cancer)) | POC (percent of control) HeLa (HeLa (cervical cancer); [3]) | POC (percent of control) HeLa (HeLa (cervical cancer); [4]) | activity at 100 µM (HDF (normal cells)) | POC (percent of control) HDF (HDF (normal cells); [3]) | POC (percent of control) HDF (HDF (normal cells); [4]) | activity at 100 µM [1] | POC (percent of control) BxPC3 [1, 3] | POC (percent of control) BxPC3 [1, 4] | activity at 100 µM (MDA-MB (breast cancer)) | POC (percent of control) MDA-MB (MDA-MB (breast cancer); [3]) | POC (percent of control) MDA-MB (MDA-MB (breast cancer); [4]) | activity at 100 µM (NCI-H196 (lung cancer)) | POC (percent of control) NCI-H196 (NCI-H196 (lung cancer); [3]) | POC (percent of control) NCI-H196 (NCI-H196 (lung cancer); [4]) | activity at 100 µM [2] | POC (percent of control) MCF10A [2, 3] | POC (percent of control) MCF10A [2, 4] | activity at 100 µM (T47D (breast cancer)) | POC (percent of control) T47D (T47D (breast cancer); [3]) | also measured
1 | O=S(=O)(NCc1c[nH]c2ccccc12)c1ccc(C(F)(F)F)cc1 [Compound 24, N-(1H-indol-3-ylmethyl)-4-(trifluoromethyl)benzenesulfonamide] | 78.9% | 80.4% of control | 96.1% of control | 57.2% | 65.6% of control | 95.7% of control | 59% | 43.1% of control | 38.6% of control | 96.4% | 41.5% of control | 49.7% of control | 172% | 54.6% of control | 73.3% of control | 85.1% | 56.8% of control | 59.1% of control | 70.6% | 49.7% of control | POC (percent of control) T47D (T47D (breast cancer); [4]): 65.5% of control; activity at 100 µM (PC3 (prostate cancer)): 54.6%; POC (percent of control) PC3 (PC3 (prostate cancer); [3]): 52.5% of control; POC (percent of control) PC3 (PC3 (prostate cancer); [4]): 47.5% of control; activity at 100 µM (SkBr3 (breast cancer)): 93.4%; POC (percent of control) SkBr3 (SkBr3 (breast cancer); [3]): 66.5% of control; POC (percent of control) SkBr3 (SkBr3 (breast cancer); [4]): 67.2% of control; activity at 100 µM (MCF7 (breast cancer)): 82.9%; POC (percent of control) MCF7 (MCF7 (breast cancer); [3]): 55.7% of control; POC (percent of control) MCF7 (MCF7 (breast cancer); [4]): 66.5% of control; activity at 100 µM (H293 (kidney cancer)): 62.6%; POC (percent of control) H293 (H293 (kidney cancer); [3]): 42.1% of control; POC (percent of control) H293 (H293 (kidney cancer); [4]): 47.6% of control
2 | O=[N+]([O-])c1cccc(S(=O)(=O)NCc2c[nH]c3ccccc23)c1 [Compound 25, N-(1H-indol-3-ylmethyl)-3-nitrobenzenesulfonamide] | 89.4% | 90.8% of control | 95.6% of control | 79.2% | 93.6% of control | 95.5% of control | 85.1% | 71.5% of control | 78.2% of control | 103% | 86.2% of control | 88.8% of control | 305% | 92.9% of control | 83% of control | 95.7% | 98.3% of control | 80.4% of control | 94.4% | 88.9% of control | POC (percent of control) T47D (T47D (breast cancer); [4]): 86.7% of control; activity at 100 µM (PC3 (prostate cancer)): 60.2%; POC (percent of control) PC3 (PC3 (prostate cancer); [3]): 96.8% of control; POC (percent of control) PC3 (PC3 (prostate cancer); [4]): 80.1% of control; activity at 100 µM (SkBr3 (breast cancer)): 112%; POC (percent of control) SkBr3 (SkBr3 (breast cancer); [3]): 88.2% of control; POC (percent of control) SkBr3 (SkBr3 (breast cancer); [4]): 104.1% of control; activity at 100 µM (MCF7 (breast cancer)): 112%; POC (percent of control) MCF7 (MCF7 (breast cancer); [3]): 92.9% of control; POC (percent of control) MCF7 (MCF7 (breast cancer); [4]): 104.2% of control; activity at 100 µM (H293 (kidney cancer)): 99.7%; POC (percent of control) H293 (H293 (kidney cancer); [3]): 79.6% of control; POC (percent of control) H293 (H293 (kidney cancer); [4]): 68.8% of control
3 | CS(=O)(=O)NCc1c[nH]c2ccccc12 [Compound 26, N-(1H-indol-3-ylmethyl)methanesulfonamide] | 90.4% | 106.9% of control | 96.3% of control | 106% | 91.1% of control | 86.9% of control | 99.1% | 86.6% of control | 88.8% of control | 90.2% | 87.6% of control | 79.2% of control | 220% | 91.3% of control | 80.8% of control | 106% | 99.9% of control | 81% of control | 93.3% | 101% of control | POC (percent of control) T47D (T47D (breast cancer); [4]): 90.8% of control; activity at 100 µM (PC3 (prostate cancer)): 92.3%; POC (percent of control) PC3 (PC3 (prostate cancer); [3]): 111.5% of control; POC (percent of control) PC3 (PC3 (prostate cancer); [4]): 89.6% of control; activity at 100 µM (SkBr3 (breast cancer)): 109%; POC (percent of control) SkBr3 (SkBr3 (breast cancer); [3]): 95.7% of control; POC (percent of control) SkBr3 (SkBr3 (breast cancer); [4]): 97.1% of control; activity at 100 µM (MCF7 (breast cancer)): 114%; POC (percent of control) MCF7 (MCF7 (breast cancer); [3]): 95.9% of control; POC (percent of control) MCF7 (MCF7 (breast cancer); [4]): 119.8% of control; activity at 100 µM (H293 (kidney cancer)): 110%; POC (percent of control) H293 (H293 (kidney cancer); [3]): 72.9% of control; POC (percent of control) H293 (H293 (kidney cancer); [4]): 72% of control
4 | O=S(=O)(NCc1c[nH]c2cccc(Br)c12)c1ccc(Cl)cc1 [Compound 27, N-[(4-bromo-1H-indol-3-yl)methyl]-4-chlorobenzenesulfonamide] | 58.3% | 104.3% of control | 73.3% of control | 65% | 38% of control | 66.6% of control | 42.8% | 14.2% of control | 15.8% of control | 62.6% | 27.3% of control | 37.3% of control | 150% | 117.2% of control | 16.7% of control | 58.9% | 27.1% of control | 30.2% of control | 33.9% | 103.1% of control | POC (percent of control) T47D (T47D (breast cancer); [4]): 103.8% of control; activity at 100 µM (PC3 (prostate cancer)): 43.1%; POC (percent of control) PC3 (PC3 (prostate cancer); [3]): 15.2% of control; POC (percent of control) PC3 (PC3 (prostate cancer); [4]): 27.2% of control; activity at 100 µM (SkBr3 (breast cancer)): 95.6%; POC (percent of control) SkBr3 (SkBr3 (breast cancer); [3]): 62.4% of control; POC (percent of control) SkBr3 (SkBr3 (breast cancer); [4]): 66% of control; activity at 100 µM (MCF7 (breast cancer)): 82.9%; POC (percent of control) MCF7 (MCF7 (breast cancer); [3]): 50.2% of control; POC (percent of control) MCF7 (MCF7 (breast cancer); [4]): 61.1% of control; activity at 100 µM (H293 (kidney cancer)): 67%; POC (percent of control) H293 (H293 (kidney cancer); [3]): 30.4% of control; POC (percent of control) H293 (H293 (kidney cancer); [4]): 27.3% of control
5 | Cc1cccc2c(CNS(=O)(=O)c3ccc(Cl)cc3)c[nH]c12 [Compound 28, 4-chloro-N-[(7-methyl-1H-indol-3-yl)methyl]benzenesulfonamide] | 57.7% | 65.6% of control | 96.1% of control | 74.9% | 56.1% of control | 62.2% of control | 40.4% | 41.8% of control | 44.6% of control | 77.4% | 45.5% of control | 78.1% of control | 129% | 40.4% of control | 60.6% of control | 72.8% | 29.5% of control | 81.1% of control | 66.1% | 33.7% of control | POC (percent of control) T47D (T47D (breast cancer); [4]): 62.2% of control; activity at 100 µM (PC3 (prostate cancer)): 31.8%; POC (percent of control) PC3 (PC3 (prostate cancer); [3]): 56.5% of control; POC (percent of control) PC3 (PC3 (prostate cancer); [4]): 64.8% of control; activity at 100 µM (SkBr3 (breast cancer)): 102%; POC (percent of control) SkBr3 (SkBr3 (breast cancer); [3]): 79.6% of control; POC (percent of control) SkBr3 (SkBr3 (breast cancer); [4]): 87.3% of control; activity at 100 µM (MCF7 (breast cancer)): 79%; POC (percent of control) MCF7 (MCF7 (breast cancer); [3]): 60.7% of control; POC (percent of control) MCF7 (MCF7 (breast cancer); [4]): 53.5% of control; activity at 100 µM (H293 (kidney cancer)): 43.2%; POC (percent of control) H293 (H293 (kidney cancer); [3]): 49% of control; POC (percent of control) H293 (H293 (kidney cancer); [4]): 43.3% of control
